Data from patent US10981932B2, “Macrocyclic indole derivatives” (Bayer Aktiengesellschaft, priority 2016, dated 2021).
Structures can show the parent of a compound that is named as a salt. Where two headings read alike, the source gives them in different places.

What was measured:
A2780 = test: Anti-proliferative effect (CellTiter-Glo, 72 h), A2780; type: cell-based; conditions: A2780 cells, median, read-out: IC50 antiproliferation assay A2780 [M] (median)
How it was run: (§1)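 Anti-proliferative activity is derived from ATP-based luminescence (CellTiter-Glo) in cells exposed to compound for 72 h at 37 °C, set against a time zero plate read at seeding.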

SUDHL5 [1] = test: Induction of caspase-3/7 activity (Caspase-Glo 3/7), SUDHL5; type: cell-based; conditions: caspase-3/7 induction, SUDHL5 cells, 3 h treatment, median
How it was run: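 Caspase-Glo 3/7 luminescence measured after 3 h compound exposure at 37 °C in SUDHL10 and SUDHL5 cells. EC50 values come from background-corrected signals, with curve bottom set to 1 and plateau set to maximal induction by the reference compound.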

BCL-2 = target: T1, BCL-2 (Homo sapiens, UniProt P10415); test: Protein-protein interaction assay BCL-2/Bad BH3 peptide (BCL-2 assay), TR-FRET; type: binding; conditions: His-BCL-2 / Bad BH3-derived peptide, median
T1 construct: BCL-2 (amino acids 1-211, C-terminal fused to a hexahistidine (6×His) tag); purchased BPS Bioscience (San Diego, Calif., USA); host or cells: E. coli
T1 sequence (P10415 1-211): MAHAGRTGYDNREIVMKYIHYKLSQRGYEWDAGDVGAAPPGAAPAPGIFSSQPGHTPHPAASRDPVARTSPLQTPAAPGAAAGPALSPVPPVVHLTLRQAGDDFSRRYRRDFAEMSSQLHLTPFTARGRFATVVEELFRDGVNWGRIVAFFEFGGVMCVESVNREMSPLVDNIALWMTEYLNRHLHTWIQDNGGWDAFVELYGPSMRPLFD
Description: Protein-Protein Interaction Assay: BCL-2/Bad BH3 Peptide (BCL-2 Assay)
The dose-dependent inhibition by the compounds described in this invention of the interaction between BCL-2 and the BH3 domain of Bad (both human) was determined using a steady state binding competition assay with time-resolved fluorescence energy transfer (TR-FRET) readout. For that purpose BCL-2 (amino acids 1-211, C-terminal fused to a hexahistidine (6×His) tag and a synthetic Bad BH3-derived peptide of sequence Biotin-PEG2-PEG2-NLWAAQRYGRELRR-Nle-SDEFVDSFKK-amide (SEQ ID NO: 2) served as protein receptor and tracer ligand respectively. The recombinant BCL-2 protein (expressed in E. coli) was purchased from BPS Bioscience (San Diego, Calif., USA). The Bad BH3-derived peptide can be obtained from e.g. Biosyntan (Berlin, Germany).
In the assay 11 different concentrations of each compound (0.1 nM, 0.33 nM, 1.1 nM, 3.8 nM. 13 nM, 44 nM, 0.15 μM, 0.51 μM, 1.7 μM, 5.9 μM and 20 μM) were typically measured as duplicates in the same microtiter plate. For that, 100-fold concentrated DMSO solutions were prepared by serial dilutions (1:3.4) of a 2 mM stock solution in a clear, 384-well microtiter plate (Greiner Bio-One, Frickenhausen, Germany). From there, 50 nl were transferred in a dark test plate (Greiner Bio-One. Frickenhausen, Germany). The assay was initiated by addition of 2 μl of a 2,5-fold concentrated His-BCL-2 solution (usually for a 1 nM end concentration in 5 μl reaction volume) in aqueous assay buffer [50 mM Tris/HCl pH 7, 100 mM sodium chloride (NaCl), 50 mM potassium fluoride (KF), 0.005% Tween-20, 2 mM DTT, 0.1% bovine gamma globulin (BGG)] to the compounds in the assay plate. This was followed by a 10-minute incubation step at 22° C. for pre-equilibration of the putative complex between His-BCL-2 and the compounds.
The mixture was incubated in the dark for one hour at 22° C. and then overnight at 4° C. The formation of BCL-2/Bad complexes was determined by measuring the resonance energy transfer of the anti-His-Eu-cryptate antibody to the streptavidin-XL665 present in the reaction. For that purpose, the fluorescence emission at 620 nm and 665 nm after excitation at 330-350 nm was measured in a TR-FRET measuring instrument, for instance a Rubystar or a Pherastar (both from BMG Lab Technologies. Offenburg, Germany) or a Viewlux (Perkin-Elmer). The ratio of the emission at 665 nm and at 622 nm was used as indicator of the amount of BCL-2/Bad complexes present.
The resulting data (ratio) were normalized, taking 0% inhibition as the mean value of control measurements (usually 32 data points) where all reagents were included. In this case 50 nl DMSO were used instead of compounds. A 100% inhibition corresponded to the mean value of control measurements (usually 32 data points) where all reagents except BCL-2 were included. IC50 values were determined by regression analysis based on a 4 parameter equation (minimum, maximum, IC50, Hill; Y=Max+(Min−Max)/(1+(X/IC50)^Hill) using the Screener Software (Genedata).

SUDHL5 [2] = test: Anti-proliferative effect (CellTiter-Glo, 72 h), SUDHL5; type: cell-based; conditions: SUDHL5 cells, antiproliferation, 72 h incubation, median, read-out: Antiproli SUDHL5 [M] (median)
How it was run: as §1

SUDHL10 = test: Anti-proliferative effect (CellTiter-Glo, 72 h), SUDHL10; type: cell-based; conditions: SUDHL10 cells, antiproliferation, 72 h incubation, median, read-out: Antiproli SUDHL10 [M] (median)
How it was run: as §1

| Structure (SMILES) | IC50 (A2780; Homo sapiens, A2780, 72 h) [M] | EC50 (SUDHL5 [1]; Homo sapiens, SU-DHL-5, 3 h) [µM] | IC50 (BCL-2) [µM] | IC50 (SUDHL5 [2]; Homo sapiens, SU-DHL-5, 72 h) [M] | IC50 (SUDHL10; Homo sapiens, SU-DHL10, 72 h) [M] | IC50 (A2780) [M] | EC50 (SUDHL5 [1]) [µM] | IC50 (SUDHL5 [2]) [M] | IC50 (SUDHL10) [M] |
| --- | --- | --- | --- | --- | --- | --- | --- | --- | --- |
| CCc1c2c(nn1C)CN(C)CCCn1c(C(=O)O)c(CCCOc3cccc4ccccc34)c3cccc-2c31 (racemic) [Example 141, (rac)-11-ethyl-7,10-dimethyl-1-[3-(1-naphthyloxy)propyl]-4,5,6,7,8,10-hexahydropyrazolo[3′,4′:7,8][1,5]diazecino[9,10,1-hi]indole-2-carboxylic Acid] | 1.48e-05 | 4.08 | > 20 | 1.39e-06 | 1e-05 | – | – | – | – |
| Cc1ccc2c(CCCOc3cccc4ccccc34)c(C(=O)O)n3c2c1-c1c(nn(C)c1C)CN(C)CCC3 (single isomer, unassigned; enantiomer 2) [Example 074, 7,10,11,12-tetramethyl-1-[3-(naphthalen-1-yloxy)propyl]-4,5,6,7,8,10-hexahydropyrazolo[3′,4′:7,8][1,5]diazecino[9,10,1-hi]indole-2-carboxylic Acid (Enantiomer 2)] | – | – | > 20 | – | – | 1.3e-05 | > 33 | 1.14e-05 | 1.26e-05 |
| Cn1nc(COc2ccc(N3CCN(C(=O)C4CC4)CC3)cc2)c2c1COCCCCn1c(C(=O)O)c(CCCOc3cccc4ccccc34)c3cccc-2c31 (single isomer, unassigned; enantiomer 1) [Example 1-22, 3-({4-[4-(cyclopropylcarbonyl)piperazin-1-yl]phenoxy}methyl)-1-methyl-7-[3-(naphthalen-1-yloxy)propyl]-1,10,11,12,13,15-hexahydropyrazolo[4′,3′:9,10][1,6]oxazacycloundecino[8,7,6-hi]indole-8-carboxylic Acid (Enantiomer 1)] | 1.83e-05 | – | > 20 | – | – | – | 1.56 | 1.58e-06 | 2.19e-06 |
| Cc1c2c(nn1CCN1CCOCC1)CN(C)CCCn1c(C(=O)O)c(CCCOc3cccc4ccccc34)c3cccc-2c31 (single isomer, unassigned; enantiomer 2) [Example 061, 7,11-dimethyl-10-[2-(morpholin-4-yl)ethyl]-1-[3-(naphthalen-1-yloxy)propyl]-4,5,6,7,8,10-hexahydropyrazolo[3′,4′:7,8][1,5]diazecino[9,10,1-hi]indole-2-carboxylic Acid (Enantiomer 2)] | – | – | > 20 | – | – | 1.14e-05 | 21.9 | 8.04e-06 | 8.37e-06 |
| Cc1ccc2c(CCCOc3cccc4c3CCCC4)c(C(=O)O)n3c2c1-c1c(C)nn(C)c1COCCCC3 (racemic) [Example 039, (rac)-1,3,4-trimethyl-7-[3-(5,6,7,8-tetrahydronaphthalen-1-yloxy)propyl]-110,11,12,13,15-hexahydropyrazolo[4′3′:9,10][1,6]oxazacycloundecino[8,7,6-hi]indole-8-carboxylic Acid] | 2.14e-05 | 7.47 | > 20 | 1.11e-05 | 1.3e-05 | – | – | – | – |
| CN1CCCn2c(C(=O)O)c(CCCOc3cccc4ccccc34)c3cccc(c32)-c2c(CN3CCOCC3)nn(C)c2C1 (single isomer, unassigned; enantiomer 1) [Example 1-43, (+)-7,9-dimethyl-11-(morpholin-4-ylmethyl)-1-[3-(naphthalen-1-yloxy)propyl]-4,5,6,7,8,9-hexahydropyrazolo[3′,4′:7,8][1,5]diazecino[9,10,1-hi]indole-2-carboxylic Acid (Enantiomer 1)] | 2.48e-05 | 6.57 | > 20 | 9.58e-06 | 8.34e-06 | – | – | – | – |
| CCc1c2c(nn1C)COCCCCn1c(C(=O)O)c(CCCOc3cccc4ccccc34)c3ccc(C)c-2c31 (single isomer, unassigned; enantiomer 1) [Example 154, 3-Ethyl-2,4-dimethyl-7-[3-(1-naphthyloxy)propyl]-2,10,11,12,13,15-hexahydropyrazolo[4′,3′:9,10][1,6]oxazacycloundecino[8,7,6-hi]indole-8-carboxylic acid-N-ethylethanamine Salt (Enantiomer 1)] | 1.72e-05 | – | > 20 | – | 4.11e-06 | – | 0.661 | 2.26e-06 | – |
| CCc1c2c(nn1C)COCCCCn1c(C(=O)O)c(CCCOc3cccc4ccccc34)c3ccc(C)c-2c31 (racemic) [Example 153, (rac)-3-Ethyl-2,4-dimethyl-7-[3-(1-naphthyloxy)propyl]-2,10,11,12,13,15-hexahydropyrazolo[4′,3′:9,10][1,6]oxazacycloundecino[8,7,6-hi]indole-8-carboxylic Acid] | 1.52e-05 | 1.7 | > 20 | 7.96e-07 | 4.09e-06 | – | – | – | – |
| Cc1c2c(nn1C)COCCCCn1c(C(=O)O)c(CCCOc3cccc4ccccc34)c3cccc-2c31 (racemic) [Example 1-36, (rac)-2,3-dimethyl-7-[3-(naphthalen-1-yloxy)propyl]-2,10,11,12,13,15-hexahydropyrazolo[4′,3′:9,10][1,6]oxazacycloundecino[8,7,6-hi]indole-8-carboxylic Acid] | > 3.3e-05 | 3.94 | > 20 | 2.63e-06 | 6.09e-06 | – | – | – | – |
| Cc1nn(C)c2c1-c1cccc3c(CCCOc4cccc5ccccc45)c(C(=O)O)n(c13)CCCCOCC2 (racemic) [Example 017, (rac)-1,3-dimethyl-7-[3-(1-naphthyloxy)propyl]-10,11,12,13,15,16-hexahydro-1H-pyrazolo[4′,3′:9,10][1,6]oxazacyclododecino[8,7,6-hi]indole-8-carboxylic Acid] | > 3.3e-05 | 14.7 | > 20 | 6.09e-06 | 2.17e-05 | – | – | – | – |
| CCn1nc2c(c1C1CC1)-c1cccc3c(CCCOc4cccc5ccccc45)c(C(=O)O)n(c13)CCCCOC2 (single isomer, unassigned; enantiomer 1) [Example 082, 3-cyclopropyl-2-ethyl-7-[3-(naphthalen-1-yloxy)propyl]-2,10,11,12,13,15-hexahydropyrazolo[4′,3′:9,10][1,6]oxazacycloundecino[8,7,6-hi]indole-8-carboxylic acid-N-ethylethanamine Salt (Enantiomer 1)] | 1.68e-05 | – | > 20 | 1.81e-05 | 7.79e-06 | – | 8.69 | – | – |
| Cc1c2c(nn1CCN1CCOCC1)CN(C)CCCn1c(C(=O)O)c(CCCOc3cccc4ccccc34)c3cccc-2c31 (single isomer, unassigned; enantiomer 1) [Example 060, 7,11-dimethyl-10-[2-(morpholin-4-yl)ethyl]-1-[3-(naphthalen-1-yloxy)propyl]-4,5,6,7,8,10-hexahydropyrazolo[3′,4′:7,8][1,5]diazecino[9,10,1-hi]indole-2-carboxylic Acid (Enantiomer 1)] | 2.21e-05 | – | > 20 | – | 1.16e-05 | – | 5.13 | 1.79e-06 | – |
